Experimental findings from patent publication US20130252943A1, “BICYCLIC OXAZOLE LACTAMS AS ALLOSTERIC MODULATORS OF MGLUR5 RECEPTORS” (VANDERBILT UNIVERSITY, priority 2012, published 2013) are described below.

For one data set, the target named is human mGluR5 (Homo sapiens, UniProt P41594). The data set can be described thus: Cell-based functional Ca2+ mobilization assay (FDSS), potentiation of glutamate EC20 response, H10H cell line. The note with it: HEK H10H cells; for Emax: maximum average response at a single concentration, as percent of maximal glutamate response, glutamate EC20; for EC50: positive allosteric modulation in presence of glutamate EC20, concentration in mol/L. The source says:
Human mGluR5a cDNA in pCMV6-XL6 mammalian expression plasmid was purchased from OriGene Technologies, Inc. (catalogue number SC326357) and subcloned into pcDNA3.1(−). Human embryonic kidney (HEK)293A cells were then transfected with human mGluR5a pcDNA3.1(−) using LipofectAmine-2000 (Invitrogen) and monoclones were selected and tested for functional response using a Ca^2+ mobilization assay. Monoclones were named for the species (“H” for human) plus the location on the plate (e.g. “10H”).
HEK cells transfected with the human mGluR5a receptor (H10H or H12H cell line) were plated at 15,000 cells/well in clear-bottomed poly-D-lysinecoated assay plates (BD Falcon) in glutamate-glutamine-free growth medium and incubated overnight at 37° C. and 5% CO2. Cell-lines used were either the H10H or H12H cell-lines expressing the human mGluR5 receptor. The following day, the growth medium was removed and the cells were washed with assay buffer containing 1× Hank's balanced salt solution (Invitrogen, Carlsbad, Calif.), 20 mM HEPES, 2.5 mM probenecid, pH 7.4 and left with 20 μL of this reagent. Following this step, the cells were loaded with calcium indicator dye, fluo-4 AM, to a final concentration of 2 μM and incubated for 40-45 min at 37° C. The dye solution was removed and replaced with assay buffer. Cell plates were held for 10-15 min at room temperature and were then loaded into the Functional Drug Screening System 6000 (FDSS 6000, Hamamatsu, Japan).
After establishment of a fluorescence baseline for about 3 seconds, the compounds of the present invention were added to the cells, and the response in cells was measured. 2.3 minutes later an EC20 concentration of the mGluR5 receptor agonist glutamate was added to the cells, and the response of the cells was measured for about 1.7 minutes. All test compounds were dissolved and diluted to a concentration of 10 mM in 100% DMSO and then serially diluted into assay buffer for a 2× stock solution in 0.6% DMSO; stock compounds were then added to the assay for a final DMSO concentration of 0.3% after the first addition to the assay well. Calcium fluorescence measures were recorded as fold over basal fluorescence; raw data was then normalized to the maximal response to glutamate.
The concentration-response curves of compounds of the present invention, obtained in the presence of EC20 of mGluR5 receptor agonist glutamate to determine positive allosteric modulation, were generated using Microsoft Excel with IDBS XLFit add-ins. The raw data file containing all time points was used as the data source in the analysis template. This was saved by the FDSS as a tab-delimited text file. Data were normalized using a static ratio function (F/F0) for each measurement of the total 350 values per well divided by each well's initial value. Data was then reduced as to peak amplitudes (Max—Initial Min) using a time range that starts approximately 1 second after the glutamate EC20 addition and continues for approximately 40 seconds. This is sufficient time to capture the peak amplitude of the cellular Calcium response. Individual amplitudes were expressed as % EMax by multiplying each amplitude by 100 and then dividing the product by the mean of the amplitudes derived from the glutamate ECMax-treated wells. pEC50 values for test compounds were generated by fitting the normalized values versus the log of the test compound concentration (in mol/L) using a 4 parameter logistic equation where none of the parameters were fixed. Each of the three values collected at each concentration of test compound were weighted evenly. Individual values falling outside the 95% prediction limits of the curve fit were automatically excluded from the fit. […] These two methods are in good agreement for curves with a clear plateau at the high concentration range. […] For consistency purposes across the range of potencies observed, all EMax values reported in this application are calculated using the maximum average response at a single concentration. […]

Where only a bound is given, the exact number is not on record here.

Sequence of human mGluR5 (P41594 21-1180 isoform P41594-2 limits assumed): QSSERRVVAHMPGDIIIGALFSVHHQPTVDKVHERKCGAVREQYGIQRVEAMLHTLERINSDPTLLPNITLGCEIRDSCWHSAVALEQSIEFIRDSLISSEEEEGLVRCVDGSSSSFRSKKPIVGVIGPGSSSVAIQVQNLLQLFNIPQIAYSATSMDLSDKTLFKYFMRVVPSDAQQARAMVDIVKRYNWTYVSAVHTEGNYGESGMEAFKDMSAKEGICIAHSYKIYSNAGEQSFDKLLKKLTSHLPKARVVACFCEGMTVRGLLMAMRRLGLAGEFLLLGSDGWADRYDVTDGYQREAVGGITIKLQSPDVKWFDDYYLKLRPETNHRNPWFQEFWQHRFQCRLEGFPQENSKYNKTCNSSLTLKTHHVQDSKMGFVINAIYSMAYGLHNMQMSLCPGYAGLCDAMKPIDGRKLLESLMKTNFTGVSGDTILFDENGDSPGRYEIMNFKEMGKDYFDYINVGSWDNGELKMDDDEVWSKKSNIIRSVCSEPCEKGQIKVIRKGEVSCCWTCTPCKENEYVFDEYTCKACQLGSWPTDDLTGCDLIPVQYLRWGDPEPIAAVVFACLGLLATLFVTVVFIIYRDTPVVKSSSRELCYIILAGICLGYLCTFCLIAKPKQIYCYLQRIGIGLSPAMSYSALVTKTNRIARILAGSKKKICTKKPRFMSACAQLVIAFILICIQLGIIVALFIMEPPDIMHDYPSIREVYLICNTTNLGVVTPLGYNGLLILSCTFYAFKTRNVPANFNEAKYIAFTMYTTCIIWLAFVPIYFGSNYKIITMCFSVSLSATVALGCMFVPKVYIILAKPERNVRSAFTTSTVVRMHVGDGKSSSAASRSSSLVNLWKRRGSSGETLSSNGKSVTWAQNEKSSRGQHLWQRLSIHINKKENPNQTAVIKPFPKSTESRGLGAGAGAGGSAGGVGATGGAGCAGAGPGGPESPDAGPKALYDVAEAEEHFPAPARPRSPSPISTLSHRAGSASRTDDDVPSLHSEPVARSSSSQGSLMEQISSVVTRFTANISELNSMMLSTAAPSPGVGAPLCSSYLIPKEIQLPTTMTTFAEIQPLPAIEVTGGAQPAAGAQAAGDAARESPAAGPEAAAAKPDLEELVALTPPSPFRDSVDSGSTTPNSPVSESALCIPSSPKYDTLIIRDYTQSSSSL

Turning to `CC1Cc2nc(COc3ccccc3)oc2C(=O)N1c1ccc(F)cc1` (racemic) [Compound B27, (rac)-5-(4-fluoro-phenyl)-6-methyl-2-phenoxymethyl-6,7-dihydro-5H-oxazolo[5,4-c]pyridin-4-ONE], on human mGluR5, the Emax is 64% and the EC50 was 0.575 µM.
As for `O=C1c2oc(COc3ccccc3)nc2CCN1c1ccc(F)cc1` [Compound B1, 5-(4-fluoro-phenyl)-2-phenoxymethyl-6,7-dihydro-5H-oxazolo[5,4-c]pyridin-4-one], the melting point was 135.8 °C. For the same compound, at human mGluR5, the Emax is 83% and the EC50 is 0.447 µM.
Consider `O=C1c2oc(COc3ccccc3)nc2CCN1c1ccccc1F` [Compound B2], for which the melting point is 116.1 °C. Moreover, on human mGluR5, the maximal response (Emax) was found to be 74% and the EC50 was 1.1 µM.
Taken in the same sequence, the figures for `O=C1c2oc(COc3ccccc3)nc2CCN1c1cccc(F)c1` [Compound B3] were 132.5 °C, 71% and 1.32 µM.
The compound `O=C1c2oc(COc3ccccc3)nc2CCN1c1cccc(F)c1F` [Compound B4] returned a melting point of 137.2 °C. Moreover, on human mGluR5, the Emax came to 75% and the EC50 was 0.646 µM.
In the case of `O=C1c2oc(COc3ccccc3)nc2CCN1c1c(F)cccc1F` [Compound B5], at human mGluR5, the maximal response (Emax) was found to be 73% and the EC50 was 0.891 µM.
In the case of `O=C1c2oc(COc3ccccc3)nc2CCN1c1ccc(F)c(F)c1` [Compound B6], the melting point came to 151.7 °C. In addition, at human mGluR5, the Emax was found to be 77% and the EC50 was 0.501 µM.
As for `O=C1c2oc(COc3ccccc3)nc2CCN1c1cc(F)cc(F)c1` [Compound B7], the melting point was found to be 150.7 °C. Besides, on human mGluR5, the Emax was 63% and the EC50 was 1.51 µM.
Taken in the same sequence, the figures for `O=C1c2oc(COc3ccccc3)nc2CCN1c1ccccn1` [Compound B8] were 123.3 °C, 32% and more than 30.2 µM.
Taken in the same sequence, the figures for `O=C1c2oc(COc3ccccc3)nc2CCN1c1cccnc1` [Compound B9] were 188.7 °C, 38% and more than 30.2 µM.
For `O=C1c2oc(COc3ccccc3)nc2CCN1c1ccncc1` [Compound B10], in that order: 130.9 °C, 49% and more than 10 µM.
Turning to `O=C1c2oc(COc3ccccc3)nc2CCN1c1ccc(F)cn1` [Compound B11], the melting point worked out at 131.9 °C. Besides, on human mGluR5, the Emax is 62% and the EC50 is 2.14 µM.
For `O=C1c2oc(COc3ccccc3)nc2CCN1c1cncc(F)c1` [Compound B12], in that order: 133.1 °C, 27% and more than 30.2 µM.
For `O=C1c2oc(COc3ccccc3)nc2CCN1c1ccccc1` [Compound B13], in that order: 131.7 °C, 76% and 1.12 µM.
Taken in the same sequence, the figures for `Cc1cccc(N2CCc3nc(COc4ccccc4)oc3C2=O)n1` [Compound B14] were 116.3 °C, 53% and more than 10 µM.
With `Cc1ccc(N2CCc3nc(COc4ccccc4)oc3C2=O)nc1` [Compound B15], the melting point was 132.4 °C. At human mGluR5, the Emax amounted to 61% and the EC50 was more than 10 µM.
As to `Cc1ccnc(N2CCc3nc(COc4ccccc4)oc3C2=O)c1` [Compound B16], the melting point is more than 300 °C. On human mGluR5, the Emax is 38% and the half-maximal effective concentration (EC50) was more than 10 µM.
For `Cc1cccnc1N1CCc2nc(COc3ccccc3)oc2C1=O` [Compound B17], in that order: 138.8 °C, 43% and more than 10 µM.
Taken in the same sequence, the figures for `Cc1cc(N2CCc3nc(COc4ccccc4)oc3C2=O)ncc1F` [Compound B21] were 125.7 °C, 56% and more than 10 µM.
For `COc1nc(N2CCc3nc(COc4ccccc4)oc3C2=O)ncc1F` [Compound B22, 5-(5-fluoro-4-methoxy-pyrimidin-2-yl)-2-phenoxymethyl-6,7-dihydro-5H-oxazolo[5,4-c]pyridin-4-one], in that order: 216.7 °C, 65% and 1.29 µM.
The compound `COc1nccc(N2CCc3nc(COc4ccccc4)oc3C2=O)n1` [Compound B23] displayed a melting point of 142 °C. Also, at human mGluR5, the Emax was 53% and the concentration for a half-maximal effect (EC50) was 3.09 µM.
Turning to `Cc1cncc(N2CCc3nc(COc4ccccc4)oc3C2=O)n1` [Compound B24], the melting point worked out at 138.8 °C. For the same compound, at human mGluR5, the Emax was found to be 44% and the EC50 was more than 10 µM.
Taken in the same sequence, the figures for `COc1nccnc1N1CCc2nc(COc3ccccc3)oc2C1=O` [Compound B25] were 131.1 °C, 47% and more than 10 µM.
With `CC1CN(c2ccc(F)cc2)C(=O)c2oc(COc3ccccc3)nc21` (stereo not shown) [Compound B28], on human mGluR5, the maximum response (Emax) was determined as 79% and the EC50 was 0.646 µM.
Take `O=C1NCCc2nc(COc3ccccc3)oc21` [Compound B29, 2-phenoxymethyl-6,7-dihydro-5H-oxazolo[5,4-c]pyridin-4-one]: the melting point was 148.5 °C. At human mGluR5, the Emax came out at 21% and the EC50 was more than 30.2 µM.
Take `CN1CCc2nc(COc3ccccc3)oc2C1=O` [Compound B33, 5-methyl-2-phenoxymethyl-6,7-dihydro-5H-oxazolo[5,4-c]pyridin-4-one]: at human mGluR5, the Emax stood at 35% and the EC50 was more than 30.2 µM.
For the compound `O=C1c2oc(COc3ccccc3)nc2CCN1CC1CC1` [Compound B34], the melting point stood at 119.2 °C. For the same compound, on human mGluR5, the Emax amounted to 68% and the 50% effective concentration (EC50) was 3.47 µM.
In the case of `C[C@@H](N1CCc2nc(COc3ccccc3)oc2C1=O)C(C)(C)C` [Compound B35, (R)-2-phenoxymethyl-5-(1,2,2-trimethyl-propyl)-6,7-dihydro-5H-oxazolo[5,4-c]pyridin-4-one], at human mGluR5, the Emax came to 54% and the EC50 is 0.977 µM.
In the case of `O=C1c2oc(COc3ccccc3)nc2CCN1Cc1ccccc1` [Compound B36], on human mGluR5, the Emax came to 59% and the EC50 is 0.891 µM.
For `O=C1NCCCc2nc(COc3ccccc3)oc21` [Compound B37, 2-phenoxymethyl-5,6,7,8-tetrahydro-3-oxa-1,5-diaza-azulen-4-one], in that order: 21% and more than 30.2 µM.
Taken in the same sequence, the figures for `CN1CCCc2nc(COc3ccccc3)oc2C1=O` [Compound B39] were 25% and more than 30.2 µM.
